Results taken from a compilation of properties of binary mixtures (doi:10.1016/j.molliq.2016.01.085).

Assay: xn = mol fraction of the nth substance listed
Details: 101 kPa

CCCC[n+]1ccn(C)c1.F[P-](F)(F)(F)(F)F + CCCOCCO
x2 = 0
Details | speed of sound [m/s]
298.15 K | 1443.8
308.15 K | 1419.8
323.15 K | 1385.6

CCCOCCO + CCCC[n+]1ccn(C)c1.F[P-](F)(F)(F)(F)F
speed of sound [m/s]
Details | x1 = 0.1468 | x1 = 0.1945 | x1 = 0.3063 | x1 = 0.3953 | x1 = 0.5119 | x1 = 0.6168 | x1 = 0.702 | x1 = 0.8043 | x1 = 0.8873 | x1 = 1
298.15 K | 1431.8 | 1427.1 | 1414 | – | 1384.2 | 1366.5 | – | 1331.5 | 1316.4 | –
303.15 K | 1419 | 1414 | – | 1387.9 | 1369.3 | 1351 | 1334.9 | – | 1299.9 | 1283.7
308.15 K | 1406.6 | – | 1387.1 | 1374.1 | 1354.7 | 1335.6 | 1319.1 | – | 1283.5 | 1266.4
313.15 K | 1394.5 | 1389.3 | 1374.4 | 1360.8 | 1340.3 | 1320.3 | – | 1283.2 | 1267.2 | 1249.2
318.15 K | 1382.8 | 1377.1 | 1361.6 | 1347.3 | – | – | 1288.1 | 1267.3 | 1250.9 | 1231.9
323.15 K | – | 1365.3 | 1349.2 | 1334.2 | 1312 | – | 1272.7 | 1251.5 | 1234.9 | 1215
